Data reported in US8361968B2 (Takeda Pharmaceutical Company Limited, priority 2002, dated 2013).
Square brackets hold non-standard residues; d marks the D form. Peptide text beside a SMILES is read from it. * marks the point of attachment. Propanoyl(3-(3-pyridyl)) = O=C(CCc1cccnc1)*; Arg(Me) = CNC(=N)NCCC[C@H](N)C(=O)O; d4Pal = N[C@H](Cc1ccncc1)C(=O)O; azaGly = NNC(=O)O

Key:
hOT7T175 [1] = biological target: T1, hOT7T175 (Homo sapiens, UniProt Q969F8, L364H); assay: Intracellular Ca ion level-increasing activity using FLIPR in hOT7T175/CHO; assay type: cell-based; set-up: expressed in transfected cells; host or cells: CHO/dhfr- cells, obtained from ATCC; settings: relative, Metastin (1-54) = 1
T1 sequence (Q969F8 whole entry L364H): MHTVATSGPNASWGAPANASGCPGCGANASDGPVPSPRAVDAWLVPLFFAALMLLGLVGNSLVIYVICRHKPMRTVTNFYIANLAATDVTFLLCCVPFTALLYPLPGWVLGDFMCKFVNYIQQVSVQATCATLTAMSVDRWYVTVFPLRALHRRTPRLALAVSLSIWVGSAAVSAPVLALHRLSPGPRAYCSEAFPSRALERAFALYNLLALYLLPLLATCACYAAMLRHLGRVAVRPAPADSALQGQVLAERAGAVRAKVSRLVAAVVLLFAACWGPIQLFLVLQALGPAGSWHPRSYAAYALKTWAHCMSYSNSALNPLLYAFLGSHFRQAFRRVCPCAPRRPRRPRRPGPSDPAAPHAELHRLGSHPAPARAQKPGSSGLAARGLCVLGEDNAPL

hOT7T175 [2] = biological target: T1, hOT7T175; assay: hOT7T175 receptor binding activity: binding inhibition of Cy-5-labeled metastin (40-54) on hOT7T175-expressed CHO cells; set-up: expressed in transfected cells; host or cells: CHO cells

SMILES | Specific Activity (intracellular Ca ion level-increasing activity) (hOT7T175 [1]) | IC50 (hOT7T175 [2]) [nM]
CNC(=N)NCCC[C@H](NC(=O)[C@H](CC(C)C)NC(=O)NNC(=O)[C@H](Cc1ccccc1)NC(=O)[C@H](CO)NC(=O)[C@H](CC(N)=O)NC(=O)[C@@H](Cc1ccncc1)NC(=O)[C@H](N)Cc1ccc(O)cc1)C(=O)N[C@@H](Cc1ccccc1)C(N)=O [Compound No. 305, D-Tyr-D-Pya(4)-Asn-Ser-Phe-AzaGly-Leu-Arg(Me)-Phe-NH2] (H-[dY][d4Pal]NSF[azaGly]L[Arg(Me)]F-NH2) | 5 | –
CNC(=N)NCCC[C@H](NC(=O)[C@H](CC(C)C)NC(=O)NNC(=O)[C@H](Cc1ccccc1)NC(=O)[C@H](CO)NC(=O)[C@H](CC(N)=O)NC(=O)CCc1cccnc1)C(=O)N[C@@H](Cc1ccccc1)C(N)=O [Compound No. 322, 3-Pyridylpropionyl-Asn-Ser-Phe-AzaGly-Leu-Arg(Me)-Phe-NH2] ({Propanoyl(3-(3-pyridyl))}-NSF[azaGly]L[Arg(Me)]F-NH2) | 1 | 54
